Test results: patent US8546338B2, “Self-assembling hydrogels based on dicephalic peptide amphiphiles” (Johnson & Johnson Consumer Companies, Inc., priority 2010, dated 2013)
Where a SMILES comes first, the peptide text is derived from it. Where no end group is shown, it is not given here. The star is where a group is joined. Palmitoyl = CCCCCCCCCCCCCCCC(=O)*

Columns and labels:
Format in all cases: physicochemical
[1] = Gelation experiments: inversion test for self-supporting hydrogels; details: for Gelation under all conditions tested: 2-4 wt %, water, DMEM and DMEM plus calcium; for Gelation under all conditions tested / Gelation (self-supporting gel on inversion), PBS / Concentration at which gel forms, PBS: PBS; for Gelation (self-supporting gel on inversion), Calcium added: DMEM plus 10 μl of 100 mg/cc calcium chloride solution; for Gelation (self-supporting gel on inversion), DMEM: DPA solution in water mixed 1:1 with DMEM; for Gelation (self-supporting gel on inversion), DMEM / Concentration at which gel forms, DMEM: no calcium added; for Gelation (self-supporting gel on inversion), PBS / Gelation (self-supporting gel on inversion), Water: final concentrations 1, 2 and 4 weight percent tested; for Concentration at which gel forms, DMEM: mixed with DMEM; for Concentration at which gel forms, Calcium added: DMEM with calcium chloride added
Experimental: Inversion tests were performed to determine qualitatively under which conditions the various DPAs formed self-supporting hydrogels. The various types of DPAs were tested by dissolving them in ultrapure water (>18 MΩ resistivity) at double the desired final concentration followed by mixing in a 1:1 ratio with different liquid mediums. Gelation was deemed to have occurred if the gel supported its own weight upon inverting the vial (FIG. 3A and FIG. 3B). Gelation was tested at final concentrations of 1, 2 and 4 weight percent. We tested phosphate buffered saline (PBS), and Dulbecco's modified eagle media (DMEM) as liquid medium. Typical scale is 100 μl each of DPA solution in water and mixing medium but other scales have been tested. Finally, if no spontaneous gelation occurs, 10 μl of 100 mg/cc calcium chloride solution was added to induce gelation.

[2] = Oscillating rheology, strain sweep; details: 2 wt % gels in DMEM
Experimental: (§1) Oscillating rheology by the parallel plates method (radius=25 mm) was performed on 400 μl gels to assess the mechanical strengths of gels. Time sweeps were performed to evaluate kinetics of formation at a constant strain rate of 1% and frequency of 1 rad/s. Strain sweeps were performed ranging from 1-100% strain in increments of 2% at a constant frequency of 1 rad/s. Cross-over of G′ and G″ was used to determine the gel point and point of breakdown. Time sweeps were initiated immediately after mixing the solutions that lead to DPA hydrogel formation. In the strain sweeps, the gels were allowed to form on the plate for 30 minutes before the measurement is initiated.
Strains sweeps were performed on 2 wt % Gly-Phe-Gly-Phe-Gly-Phe-Gly-Gln-Gln-Ser (SEQ ID NO: 8), Gly-Phe-Gly-Phe-Gly-Phe-Gly-Gln-Gly-Ser (SEQ ID NO: 12) and Gly-Phe-Gly-Phe-Gly-Phe-Gly-Asn-Asn-Ser (SEQ ID NO: 11) gels in DMEM (FIG. 8). Gels were allowed to form for 30 minutes before the experiment was initiated.

[3] = Oscillating rheology, time sweep (kinetics of formation); details: for Gel point after mixing: 2 wt % gels in DMEM
Experimental: as §1
The gelation process was initiated on the plate at 25° C. by the addition of 10 μl of 100 mg/ml calcium chloride solution to a solution of the DPA in DMEM.

[4] = listed as linear peptide amphiphile analogue

Row | Molecule | Gelation (self-supporting gel on inversion), Calcium added [1] | Gelation (self-supporting gel on inversion), DMEM [1] | Gelation (self-supporting gel on inversion), PBS [1] | Gelation (self-supporting gel on inversion), Water ([1]; in water) | Concentration at which gel forms, DMEM [1] [%] | further results
1 | CCCCCCCCCCCCCCCC(=O)NC(C(=O)NCC(=O)N[C@@H](Cc1c[nH]c2ccccc12)C(=O)NCC(=O)N[C@@H](Cc1c[nH]c2ccccc12)C(=O)NCC(=O)N[C@@H](Cc1c[nH]c2ccccc12)C(=O)NCC(=O)N[C@@H](CCC(N)=O)C(=O)N[C@@H](CCC(N)=O)C(=O)N[C@@H](CO)C(=O)O)C(=O)NCC(=O)N[C@@H](Cc1c[nH]c2ccccc12)C(=O)NCC(=O)N[C@@H](Cc1c[nH]c2ccccc12)C(=O)NCC(=O)N[C@@H](Cc1c[nH]c2ccccc12)C(=O)NCC(=O)N[C@@H](CCC(N)=O)C(=O)N[C@@H](CCC(N)=O)C(=O)N[C@@H](CO)C(=O)O [Gly-Trp-Gly-Trp-Gly-Trp-Gly-Gln-Gln-Ser] | No | No | No | No |  | Gelation under all conditions tested [1]: no gelation was observed
2 | CCCCCCCCCCCCCCCC(=O)NC(C(=O)NCC(=O)N[C@@H](Cc1ccccc1)C(=O)NCC(=O)N[C@@H](Cc1ccccc1)C(=O)NCC(=O)N[C@@H](Cc1ccccc1)C(=O)NCC(=O)N[C@@H](CC(N)=O)C(=O)NCC(=O)N[C@@H](CO)C(=O)O)C(=O)NCC(=O)N[C@@H](Cc1ccccc1)C(=O)NCC(=O)N[C@@H](Cc1ccccc1)C(=O)NCC(=O)N[C@@H](Cc1ccccc1)C(=O)NCC(=O)N[C@@H](CC(N)=O)C(=O)NCC(=O)N[C@@H](CO)C(=O)O [Gly-Phe-Gly-Phe-Gly-Phe-Gly-Asn-Gly-Ser] |  | Yes, | No | No | 2 | 
3 | GFGFGFGQQS-OH [Gly-Phe-Gly-Phe-Gly-Phe-Gly-Gln-Gln-Ser, reference compound] | No | No | No | No |  | Gelation under all conditions tested [1]: did not form any gels
4 | CCCCCCCCCCCCCCCC(=O)NC(C(=O)NCC(=O)N[C@@H](Cc1ccccc1)C(=O)NCC(=O)N[C@@H](Cc1ccccc1)C(=O)NCC(=O)N[C@@H](Cc1ccccc1)C(=O)NCC(=O)NCC(=O)N[C@@H](CC(N)=O)C(=O)N[C@@H](CO)C(=O)O)C(=O)NCC(=O)N[C@@H](Cc1ccccc1)C(=O)NCC(=O)N[C@@H](Cc1ccccc1)C(=O)NCC(=O)N[C@@H](Cc1ccccc1)C(=O)NCC(=O)NCC(=O)N[C@@H](CC(N)=O)C(=O)N[C@@H](CO)C(=O)O [Gly-Phe-Gly-Phe-Gly-Phe-Gly-Gly-Asn-Ser] |  | Yes, | No | No | 2 | 
5 | CCCCCCCCCCCCCCCC(=O)NCC(=O)N[C@@H](Cc1ccccc1)C(=O)NCC(=O)N[C@@H](Cc1ccccc1)C(=O)NCC(=O)N[C@@H](Cc1ccccc1)C(=O)NCC(=O)N[C@@H](CCC(N)=O)C(=O)N[C@@H](CCC(N)=O)C(=O)N[C@@H](CO)C(=O)O [reference compound] (Palmitoyl-GFGFGFGQQS-OH) | Yes, | No | No | No |  | Gelation (self-supporting gel on inversion), Calcium added [1, 4]: could be gelled; Concentration at which gel forms, Calcium added [1]: 2%; Gelation (self-supporting gel on inversion), DMEM [1, 4]: did not form gels; Gelation (self-supporting gel on inversion), PBS [1, 4]: did not form gels; Gelation (self-supporting gel on inversion), Water ([1]; in water, listed as linear peptide amphiphile analogue): did not form gels
6 | CCCCCCCCCCCCCCCC(=O)NC(C(=O)NCC(=O)N[C@@H](Cc1ccccc1)C(=O)NCC(=O)N[C@@H](Cc1ccccc1)C(=O)NCC(=O)N[C@@H](Cc1ccccc1)C(=O)NCC(=O)NCC(=O)N[C@@H](CCC(N)=O)C(=O)N[C@@H](CO)C(=O)O)C(=O)NCC(=O)N[C@@H](Cc1ccccc1)C(=O)NCC(=O)N[C@@H](Cc1ccccc1)C(=O)NCC(=O)N[C@@H](Cc1ccccc1)C(=O)NCC(=O)NCC(=O)N[C@@H](CCC(N)=O)C(=O)N[C@@H](CO)C(=O)O [Gly-Phe-Gly-Phe-Gly-Phe-Gly-Gly-Gln-Ser] |  | Yes, | No | No | 2 | 
7 | CCCCCCCCCCCCCCCC(=O)NC(C(=O)NCC(=O)N[C@@H](Cc1ccccc1)C(=O)NCC(=O)N[C@@H](Cc1ccccc1)C(=O)NCC(=O)N[C@@H](Cc1ccccc1)C(=O)NCC(=O)N[C@@H](CCC(N)=O)C(=O)NCC(=O)N[C@@H](CO)C(=O)O)C(=O)NCC(=O)N[C@@H](Cc1ccccc1)C(=O)NCC(=O)N[C@@H](Cc1ccccc1)C(=O)NCC(=O)N[C@@H](Cc1ccccc1)C(=O)NCC(=O)N[C@@H](CCC(N)=O)C(=O)NCC(=O)N[C@@H](CO)C(=O)O [Gly-Phe-Gly-Phe-Gly-Phe-Gly-Gln-Gly-Ser] |  | Yes, | Yes, | No | 2 | Concentration at which gel forms, PBS [1]: 2%; Gelation characteristics, qualitative comparison ([1]; compared to the SEQ ID NO: 8 DPA): formed more rapidly and appears to be stronger; Strain at which gel re-crosses the transition point (breakdown) ([2]; formed for 30 minutes): 99 % strain; Strain at which gel re-crosses the transition point (breakdown) ([2]; formed for 30 minutes, listed as Gln-Gly-Ser (SEQ ID NO: 30)): ~100 % strain; Gel point after mixing [3]: instantaneous
8 | CCCCCCCCCCCCCCCC(=O)NC(C(=O)NCC(=O)N[C@@H](Cc1ccc(O)cc1)C(=O)NCC(=O)N[C@@H](Cc1ccc(O)cc1)C(=O)NCC(=O)N[C@@H](Cc1ccc(O)cc1)C(=O)NCC(=O)N[C@@H](CCC(N)=O)C(=O)N[C@@H](CCC(N)=O)C(=O)N[C@@H](CO)C(=O)O)C(=O)NCC(=O)N[C@@H](Cc1ccc(O)cc1)C(=O)NCC(=O)N[C@@H](Cc1ccc(O)cc1)C(=O)NCC(=O)N[C@@H](Cc1ccc(O)cc1)C(=O)NCC(=O)N[C@@H](CCC(N)=O)C(=O)N[C@@H](CCC(N)=O)C(=O)N[C@@H](CO)C(=O)O [Gly-Tyr-Gly-Tyr-Gly-Tyr-Gly-Gln-Gln-Ser] | does form gels and Yes | does not gel and No | does not gel and No | does not gel and No |  | Concentration at which gel forms, Calcium added [1]: 2%
9 | CCCCCCCCCCCCCCCC(=O)NC(C(=O)NCC(=O)N[C@@H](Cc1ccccc1)C(=O)NCC(=O)N[C@@H](Cc1ccccc1)C(=O)NCC(=O)N[C@@H](Cc1ccccc1)C(=O)NCC(=O)N[C@@H](CC(N)=O)C(=O)N[C@@H](CC(N)=O)C(=O)N[C@@H](CO)C(=O)O)C(=O)NCC(=O)N[C@@H](Cc1ccccc1)C(=O)NCC(=O)N[C@@H](Cc1ccccc1)C(=O)NCC(=O)N[C@@H](Cc1ccccc1)C(=O)NCC(=O)N[C@@H](CC(N)=O)C(=O)N[C@@H](CC(N)=O)C(=O)N[C@@H](CO)C(=O)O [Gly-Phe-Gly-Phe-Gly-Phe-Gly-Asn-Asn-Ser] |  | Yes, | Yes, | Yes, | 2 | Concentration at which gel forms, PBS [1]: 4%; Concentration at which gel forms, Water ([1]; in water): 2%; Initial strength in strain sweep, comparison [2]: highest initial strength; Strain at which decline in properties starts ([2]; formed for 30 minutes): 15 % strain; Strain at which gel re-crosses the transition point (breakdown) ([2]; formed for 30 minutes): 42 % strain; Strain at which gel re-crosses the transition point (breakdown) ([2]; formed for 30 minutes, listed as Asn-Asn-Ser (SEQ ID NO: 29)): 40 % strain; Gel point after mixing [3]: instantaneous; Rheological properties in kinetics of formation experiment, comparison ([3]; polar, non-charged solubility enhancing regions compared): highest rheological properties
